For this test, the system named is HSP 70. Kind of test: Production of stress protein HSP 70 (RNAm by RT-PCR, band intensity vs β-actine) in cutaneous cell cultures. The format is cell-based, human. The settings on record: tested at 1.5 g/l. How it is done:
1st test with thermal treatment:
At J0, cutaneous cells, fibroblasts and/or keratinocytes are seeded.
At J4, 3% of active principle was added and after an incubation of 30 minutes thermal treatment is carried out for 1 hour at 39° C.
The positive specimen is treated for 1 hour at 44° C.
The total RNA is extracted. The RNA is reverse-transcripted and the complementary DNA is analyzed by using complementary oligonucleotides of a sequence coding the genes and proteins studied.
The RNAm of β-actine is analyzed for each experimental condition.
By image analysis, using for example the system sold under the name BIO-PROFIL, the band intensities are determined.
2nd test without thermal treatment:
At J3, 3% of active principle is added and left to incubate for 24 hours at 37° C.
At J4, at the end of this incubation, the cells are recovered.
The total RNA is extracted. The RNA is reverse-transcripted and the complementary DNA is analyzed by using complementary oligonucleotides of a sequence coding the genes and proteins used. The RNAm of p-actine is analyzed for each experimental condition.
Similarly to the above, by image analysis, the intensities of the bands are determined. […]
The results of the thermal treatments of the standard are indicated in the table in FIG. 1, taking as 100% the quantity of RNAm of HSP 70 after incubation at 37° C. of a standard specimen

2 compounds from patent US20020054927A1, “Process for the extraction of an active principle from leaves of Olea Europaea to promote the synthesis of stress proteins, obtained active principle” (priority 2000, published 2002) can be followed below.

`OCCc1ccc(O)c(O)c1` [Dihydroxytyrosol]: the “effect on the synthesis of HSP 70 on fibroblasts, result in words” value is recorded as “very active”.

On to `C/C=C1/[C@H](O[C@@H]2O[C@H](CO)[C@@H](O)[C@H](O)[C@H]2O)OC=C(C(=O)OC)[C@H]1CC(=O)OCCc1ccc(O)c(O)c1` [Oleuropeine], for which the “effect on the synthesis of HSP 70 on fibroblasts, result in words” value is “very active”.
